This is an account of results in patent publication US20240158355A1, “BET SUBFAMILY INHIBITORS AND METHODS USING SAME” (Baylor College of Medicine, priority 2021, published 2024).

The experiment has as its target BRDT-BD2 (Homo sapiens (Human), UniProt Q58F21). Nature of the experiment: AlphaScreen bromodomain proximity assay (competition with biotinylated (+)-JQ1), BRDT-BD2. It is filed as binding. A general note: In Alpha technology, singlet oxygen from a donor bead excites a nearby acceptor bead.

pIC50: −log10 of the molar value. Where only a bound is given, the exact number is not on record here.

In the case of `CNC(=O)c1ccc(C(=O)Nc2cc(NC(=O)c3ccc4c(c3)c(-c3ccc(N)nc3C)nn4C)ccc2C)cc1` [compound 14, N^1-(5-(3-(6-Amino-2-methylpyridin-3-yl)-1-methyl-1H-indazole-5-carboxamido)-2-methylphenyl)-N^4-methylterephthalamide], the pIC50 (in general, the IC50 on a negative log10 scale, so that one unit is a factor of ten) is 7.03.

For the compound `CC(=O)Nc1cc(NC(=O)c2ccc3c(c2)c(-c2cnc(N)cc2C)nn3C)ccc1C` [compound 16, N-(3-Acetamido-4-methylphenyl)-3-(6-amino-4-methylpyridin-3-yl)-1-methyl-1H-indazole-5-carboxamide], the pIC50 is 6.90.

`COc1ccc(NC(=O)c2ccc3c(c2)c(-c2cc4ccccc4n2C)nn3C)cc1` [compound 28, N-(4-Methoxyphenyl)-1-methyl-3-(1-methyl-1H-indol-2-yl)-1H-indazole-5-carboxamide] had a negative-log IC50 (pIC50) of 6.92.

For the compound `COc1ccc(NC(=O)c2ccc3c(c2)c(-c2cc4ccccc4n2C)nn3C)cc1C` [compound 29, N-(4-Methoxy-3-methylphenyl)-1-methyl-3-(1-methyl-1H-indol-2-yl)-1H-indazole-5-carboxamide], the negative-log IC50 (pIC50) was 6.95.

`COc1ccc(NC(=O)c2ccc3c(c2)c(-c2cc4ccccc4n2C)nn3C)cc1OC` [compound 30, N-(3,4-Dimethoxyphenyl)-1-methyl-3-(1-methyl-1H-indol-2-yl)-1H-indazole-5-carboxamide]: the pIC50 was 7.00.

Take `COc1ccc(NC(=O)c2ccc3c(c2)c(-c2cc4ccccc4n2C)nn3C)cc1F` [compound 31, N-(3-Fluoro-4-methoxyphenyl)-1-methyl-3-(1-methyl-1H-indol-2-yl)-1H-indazole-5-carboxamide]: the pIC50 is 6.92.

Turning to `COc1ccc(NC(=O)c2ccc3c(c2)c(-c2cc4ccccc4n2C)nn3C)cc1Cl` [compound 32, N-(3-Chloro-4-methoxyphenyl)-1-methyl-3-(1-methyl-1H-indol-2-yl)-1H-indazole-5-carboxamide], the pIC50 is 6.79.

Regarding `COc1ccc(NC(=O)c2ccc3c(c2)c(-c2cc4ccccc4n2C)nn3C)c(C)c1` [compound 33, N-(4-Methoxy-2-methylphenyl)-1-methyl-3-(1-methyl-1H-indol-2-yl)-1H-indazole-5-carboxamide], the pIC50 is 6.74.

Take `COc1ccc(NC(=O)c2ccc3c(c2)c(-c2cc4ccccc4n2C)nn3C)c(OC)c1` [compound 34, N-(2,4-Dimethoxyphenyl)-1-methyl-3-(1-methyl-1H-indol-2-yl)-1H-indazole-5-carboxamide]: the negative logarithm of the IC50 (pIC50) was 6.03.

With `COc1ccc(NC(=O)c2ccc3c(c2)c(-c2cc4ccccc4n2C)nn3C)c(F)c1` [compound 35, N-(2-Fluoro-4-methoxyphenyl)-1-methyl-3-(1-methyl-1H-indol-2-yl)-1H-indazole-5-carboxamide], the pIC50 is 6.69.

`COc1ccc(NC(=O)c2ccc3c(c2)c(-c2cc4ccccc4n2C)nn3C)c(Cl)c1` [compound 36, N-(2-Chloro-4-methoxyphenyl)-1-methyl-3-(1-methyl-1H-indol-2-yl)-1H-indazole-5-carboxamide] gave a pIC50 of under 5.90.

Compound `CNC(=O)c1ccc(C(=O)Nc2cc(NC(=O)c3ccc4c(c3)c(-c3ccc(OCc5ccccc5)cc3)nn4C)ccc2C)cc1` [compound 37, N^1-(5-(3-(4-(Benzyloxy)phenyl)-1-methyl-1H-indazole-5-carboxamido)-2-methylphenyl)-N^4-methylterephthalamide] gave a pIC50 of under 5.00.

As for `CNC(=O)c1ccc(C(=O)Nc2cc(NC(=O)c3ccc4c(c3)c(-c3ccc(N5CCNCC5)nc3)nn4C)ccc2C)cc1` [compound 38], the pIC50 is under 5.00.

Consider `CNC(=O)c1ccc(C(=O)Nc2cc(NC(=O)c3ccc4c(c3)c(-c3ccc(N5CCOCC5)nc3)nn4C)ccc2C)cc1` [compound 39, N^1-Methyl-N^4-(2-methyl-5-(1-methyl-3-(6-morpholinopyridin-3-yl)-1H-indazole-5-carboxamido)phenyl)terephthalamide], for which the pIC50 is under 5.00.

As for `CNC(=O)c1ccc(C(=O)Nc2cc(NC(=O)c3ccc4c(c3)c(-c3ccc(Cl)cc3)nn4C)ccc2C)cc1` [compound 40, N^1-(5-(3-(4-Chlorophenyl)-1-methyl-1H-indazole-5-carboxamido)-2-methylphenyl)-N^4-methylterephthalamide], the pIC50 is 6.97.

As for `CC(=O)Nc1cc(NC(=O)c2ccc3c(c2)c(-c2ccc(Cl)cc2C)nn3C)ccc1C` [compound 41, N-(3-Acetamido-4-methylphenyl)-3-(4-chloro-2-methylphenyl)-1-methyl-1H-indazole-5-carboxamide], the pIC50 was 7.24.

In the case of `CC(=O)Nc1cc(NC(=O)c2ccc3c(c2)c(-c2ccc(Cl)cc2Cl)nn3C)ccc1C` [compound 42, N-(3-Acetamido-4-methylphenyl)-3-(2,4-dichlorophenyl)-1-methyl-1H-indazole-5-carboxamide], the pIC50 is 6.49.

As to `COc1ccc(NC(=O)c2ccc3c(c2)c(-c2ccncc2)nn3C)cc1` [compound 43, N-(4-Methoxyphenyl)-1-methyl-3-(pyridin-4-yl)-1H-indazole-5-carboxamide], the pIC50 is 6.01.

In the case of `COc1ccc(NC(=O)c2ccc3c(c2)c(-c2ccncc2C)nn3C)cc1` [compound 44, N-(4-Methoxyphenyl)-1-methyl-3-(3-methylpyridin-4-yl)-1H-indazole-5-carboxamide], the pIC50 was 6.15.

Compound `Cc1ccc(NC(=O)c2ccc3c(c2)c(-c2ccc(N)nc2)nn3C)cc1NC(=O)C1CCN(C)CC1` [compound 45, 3-(6-Aminopyridin-3-yl)-1-methyl-N-(4-methyl-3-(1-methylpiperidine-4-carboxamido)phenyl)-1H-indazole-5-carboxamide] showed a negative-log IC50 (pIC50) of 7.24.

`Cc1ccc(NC(=O)c2ccc3c(c2)c(-c2ccc(N)nc2)nn3C)cc1NC(=O)N1CCNCC1` [compound 46, 3-(6-Aminopyridin-3-yl)-1-methyl-N-(4-methyl-3-(piperazine-1-carboxamido)phenyl)-1H-indazole-5-carboxamide] gave a pIC50 of 7.10.

`Cc1ccc(NC(=O)c2ccc3c(c2)c(-c2ccc(N)nc2)nn3C)cc1NC(=O)C1CCCCC1` [compound 47, 3-(6-Aminopyridin-3-yl)-N-(3-(cyclohexanecarboxamido)-4-methylphenyl)-1-methyl-1H-indazole-5-carboxamide] had a pIC50 of 6.95.

For `Cc1ccc(NC(=O)c2ccc3c(c2)c(-c2ccc(N)nc2)nn3C)cc1NC(=O)[C@H]1CC[C@@H](N)CC1` [compound 48, N-(3-((1s,4s)-4-Aminocyclohexane-1-carboxamido)-4-methylphenyl)-3-(6-aminopyridin-3-yl)-1-methyl-1H-indazole-5-carboxamide], the negative-log IC50 (pIC50) was 7.29.

`CNC(=O)[C@H]1CC[C@H](C(=O)Nc2cc(NC(=O)c3ccc4c(c3)c(-c3ccc(N)nc3)nn4C)ccc2C)CC1` [compound 49] had a negative-log IC50 (pIC50) of 7.17.

In turn, `CN1CCC(NC(=O)c2ccc3c(c2)c(-c2ccc(N)nc2)nn3C)CC1` [compound 50, 3-(6-Aminopyridin-3-yl)-1-methyl-N-(1-methylpiperidin-4-yl)-1H-indazole-5-carboxamide] had a negative-log IC50 (pIC50) of under 6.70.

For the compound `CC(=O)N1CCC(NC(=O)c2ccc3c(c2)c(-c2ccc(N)nc2)nn3C)CC1` [compound 51, N-(1-Acetylpiperidin-4-yl)-3-(6-aminopyridin-3-yl)-1-methyl-1H-indazole-5-carboxamide], the pIC50 was under 6.70.

As for `Cn1nc(-c2ccc(N)nc2)c2cc(C(=O)NC3CCN(C(=O)OC(C)(C)C)CC3)ccc21` [compound 52, tert-Butyl 4-(3-(6-aminopyridin-3-yl)-1-methyl-1H-indazole-5-carboxamido)piperidine-1-carboxylate], the negative-log IC50 (pIC50) was under 6.70.

With `Cn1nc(-c2ccc(N)nc2)c2cc(C(=O)NC3CCNCC3)ccc21` [compound 53, 3-(6-Aminopyridin-3-yl)-1-methyl-N-(piperidin-4-yl)-1H-indazole-5-carboxamide], the negative-log IC50 (pIC50) is under 6.70.

Turning to `Cn1nc(-c2ccc(N)nc2)c2cc(C(=O)Nc3cccc(C(=O)O)c3)ccc21` [compound 54, 3-(3-(6-Aminopyridin-3-yl)-1-methyl-1H-indazole-5-carboxamido)benzoic acid], the pIC50 was 6.42.

On to `Cc1ccc(NC(=O)c2ccc3c(c2)c(-c2ccc(N)cc2C)nn3C)cc1C(N)=O` [compound 56, 3-(4-Amino-2-methylphenyl)-N-(3-carbamoyl-4-methylphenyl)-1-methyl-1H-indazole-5-carboxamide], for which the negative-log IC50 (pIC50) was 7.47.

`CNC(=O)c1cccc(NC(=O)c2ccc3c(c2)c(-c2ccc(N)cc2C)nn3C)c1` [compound 57, 3-(4-Amino-2-methylphenyl)-1-methyl-N-(3-(methylcarbamoyl)phenyl)-1H-indazole-5-carboxamide]: the negative-log IC50 (pIC50) is 7.54.

`Cc1ccc(NC(=O)c2ccc3c(c2)c(-c2ccc(N)cc2C)nn3C)cc1NS(C)(=O)=O` [compound 58, 3-(4-Amino-2-methylphenyl)-1-methyl-N-(4-methyl-3-(methylsulfonamido)phenyl)-1H-indazole-5-carboxamide]: the pIC50 is 7.17.

`Cc1ccc(NC(=O)c2ccc3c(c2)c(-c2ccc(N)cc2C)nn3C)cc1` [compound 60, 3-(4-Amino-2-methylphenyl)-1-methyl-N-(p-tolyl)-1H-indazole-5-carboxamide]: the pIC50 is 7.04.

`Cc1cc(N)ccc1-c1nn(C)c2ccc(C(=O)Nc3ccc(C(F)(F)F)cc3)cc12` [compound 61, 3-(4-Amino-2-methylphenyl)-1-methyl-N-(4-(trifluoromethyl)phenyl)-1H-indazole-5-carboxamide] showed a negative-log IC50 (pIC50) of 6.05.

`CCOc1ccc(NC(=O)c2ccc3c(c2)c(-c2ccc(N)cc2C)nn3C)cc1` [compound 62, 3-(4-Amino-2-methylphenyl)-N-(4-ethoxyphenyl)-1-methyl-1H-indazole-5-carboxamide]: the negative logarithm of the IC50 (pIC50) is 7.32.

For `Cc1cc(N)ccc1-c1nn(C)c2ccc(C(=O)Nc3ccc(F)cc3)cc12` [compound 63, 3-(4-Amino-2-methylphenyl)-N-(4-fluorophenyl)-1-methyl-1H-indazole-5-carboxamide], the pIC50 is 7.00.
